Measured values as given in PMC7502707, “Characterization and validation of a preventative therapy for hypertrophic cardiomyopathy in a murine model of the disease” (Proceedings of the National Academy of Sciences of the …, 2020).

Key:
[1] = test system: myocytes isolated from wt and cTnI-G203S mice; test: Confocal imaging of F-actin (phalloidin) in myocytes from treated mice; type: in vivo, mouse; conditions: myocytes from cTnI-G203S mice treated 10 μM 3×/wk/5 wk, Pre HCM Rx
Description: Following completion of treatment regimens, myocytes were isolated and prepared for confocal imaging based on previously described methods ([29]). Detailed methods are provided in SI Appendix.
Echocardiographic measurement of left ventricular function were performed on mice under light methoxyflurane anesthesia using an i13L probe on a Vivid 7 Dimension ultrasound system (GE Healthcare, Little Chalfont, United Kingdom) as previously described (4, 7). Echocardiographic measurements were taken on M-mode in triplicate from separate mice at a sweep speed of 200 mm/s. Each n represents the average of quantitative measurements from wt or cTnI-G203S mice for each treatment group. […] FS was calculated by the formula [(LVEDD-LVESD)/EDD] x 100.
Cell size was determined as previously described (16). […]
To measure kidney toxicity, urea and creatinine concentration was assessed using QuantiChrom Urea and Creatinine assay kits respectively (BioAssay Systems, Hayward CA). To measure liver toxicity, alanine transaminase (ALT) and aspartate transaminase (AST) concentration was measured using Alanine Transaminase and Aspartate Transaminase assay kits respectively (BioAssay Systems, Hayward CA). […]

[2] = test system: wt and cTnI-G203S cardiac myocytes; test: Mitochondrial flavoprotein oxidation (autofluorescence) after in vitro peptide exposure; type: cell-based, mouse; conditions: 10 μM BayK(−)
Description: Fluorescence was measured on a Hamamatsu Orca ER digital camera attached to an inverted Nikon TE2000-U microscope. Fluorescent indicator 5,5′,6,6′-tetrachloro-1,1′,3,3′-tetraethylbenzimidazolylcarbocyanine iodide was used to measure Ψm in cardiac myocytes, as previously described (JC-1, Molecular Probes) ([61]). Autofluorescence was used to measure flavoprotein oxidation in cardiac myocytes based on previously described methods ([13], [29], [62]). Responses to drugs were reported as a percentage increase from the basal average. Detailed methods are provided in SI Appendix. […]
Autofluorescence […]
was used to measure flavoprotein oxidation in cardiac myocytes based on previously described methods (ex = 480 nm, em = 535 nm, interval = 1 min, exposure = 1.5 seconds) (4, 6, 7). Carbonyl cyanide-4-(trifluoromethoxy)phenylhydrazone (FCCP, 50 μM, mitochondrial electron transport chain uncoupler) was added at the end of each experiment to increase flavoprotein oxidation confirming signal was mitochondrial in origin. Ratiometric JC-1 or flavoprotein fluorescent signals were quantified by manually tracing myocytes and subtracting an equivalent background region […]
Responses to drugs were reported as a percentage increase from the basal average. […]
(10). Cardiac myocytes were treated with relevant drugs in 96 well plates. MTT was added to each well to a final concentration of 0.5 mg/ml and the rate of the increase in absorbance immediately measured using a spectrophotometer at 37°C (PowerWave XS, 570 nm, reference wavelength of 620 nm). The rate of the increase in absorbance in response to treatments was expressed as a percentage of the rate of the increase prior to the addition of treatments. Each n represents number of replicates for each treatment group from cardiac myocytes isolated from a total of 6 wt (AID[S]- TAT), 4 cTnI-G203S (AID[S]-TAT), and 3 (AID-TAT) mice.
Immunoblot of ICa-L protein

Sequence: QQLEEDLKGYLDWITQAE [AID-TAT]
- F-actin organization [1]: F-actin organization comparable to wt myocytes
- increase in flavoprotein oxidation in response to BayK(−) ([2]; cTnI-G203S myocytes, 1 μM peptide in vitro): attenuated the response
- increase in flavoprotein oxidation in response to BayK(−) ([2]; cTnI-G203S myocytes, 10 μM peptide in vitro): significantly attenuated the response
- increase in flavoprotein oxidation in response to BayK(−) ([2]; wt myocytes, 1 μM peptide in vitro): attenuated the response in cTnI-G203S but not wt myocytes
- increase in flavoprotein oxidation in response to BayK(−) ([2]; wt myocytes, 10 μM peptide in vitro): significantly attenuated the response
